Several values for one entry are separate records, joined by “and”; a condition that tells them apart may be missing. Equal values may be shown once.
What was measured:
[1] = system: PSMA-positive PC-3 PIP cells; experiment: Cell uptake and internalization in PSMA-positive PC-3 PIP cells; format: cell-based
[2] = system: PC-3 PIP/flu tumor-bearing mice; experiment: Biodistribution studies in PC-3 PIP/flu tumor-bearing mice; conditions: for Tumor-to-blood / Tumor-to-kidney / Tumor-to-liver: PC-3 PIP tumor
mouse plasma proteins = experiment: Ultrafiltration assay, binding to mouse plasma proteins; format: in vitro ADME
Experimental: Filter Assay. […] In addition, the radioligands were diluted in PBS (buffer solution without proteins) as a control experiment. Aliquots of the solutions were loaded onto an ultrafiltration device and centrifuged. The filtered activity was measured with a γ-counter and used for calculating the plasma protein-bound activity (retained on the filter membrane) as the percentage of total added activity. […] Statistical analysis (one-way ANOVA with Bonferroni's multiple comparison post-test) was performed using GraphPad Prism software, version 7. A p-value of <0.05 was considered statistically significant.

human plasma proteins = experiment: Ultrafiltration assay, binding to human plasma proteins; conditions: human plasma, ultrafiltration
Experimental: Therefore, the compounds were labeled with ^177Lu at a specific activity of 50 MBq/nmol and incubated in human plasma samples or PBS at room temperature. The free and plasma-bound fractions were separated using a centrifree ultrafiltration device (4104 centrifugal filter units [Millipore]; 30000 Da nominal molecular weight limit, methylcellulose micropartition membranes). The incubated solution was loaded to the ultrafiltration device and centrifuged at 2500 rpm for 40 min at 20° C. Samples from the filtrate were taken an analyzed for radioactivity in a gamma-counter. The amount of plasma-bound compound was calculated as the fraction of radioactivity measured in the filtrate relative to the corresponding loading solution (set to 100%).
Determination of Albumin-binding Properties. The binding of the radioligands to human plasma proteins was determined by an ultrafiltration assay. […] Three independent experiments were performed in duplicates with both radioligands and the data was fitted to a semi-logarithmic plot (non-linear regression, one-site, specific binding) to obtain the half maximum binding (B50) in GraphPad Prism software (version 7).
The ^177Lu-labeled PSMA ligands (50 MBq/nmol) were diluted in mouse plasma (Rockland, USA) and human plasma (Stiftung Blutspende SRK Aargau-Solothurn, Switzerland), respectively, and incubated for 15 min at room temperature. In addition, the radioligands were diluted in PBS (buffer solution without proteins) as a control experiment. Aliquots of the solutions were loaded onto an ultrafiltration device and centrifuged. The filtered activity was measured with a γ-counter and used for calculating the plasma protein-bound activity (retained on the filter membrane) as the percentage of total added activity. […] Statistical analysis (one-way ANOVA with Bonferroni's multiple comparison post-test) was performed using GraphPad Prism software, version 7. A p-value of <0.05 was considered statistically significant.

[3] = non-decay-corrected biodistribution data up to 192 h p.i.

O=C(O)CCC(NC(=O)NC(CCCCNC(=O)C(Cc1ccc2ccccc2c1)NC(=O)C1CCC(CNC(=O)C(CCCCNC(=O)CN2CCN(CC(=O)O)CCN(CC(=O)O)CCN(CC(=O)O)CC2)NC(=O)CC(NC(=O)CC(NC(=O)CCCc2ccc(I)cc2)C(=O)O)C(=O)O)CC1)C(=O)O)C(=O)O (stereo not shown) [^177Lu-PSMA-ALB-05, metal not drawn]
cell uptake ([1]; 2 h): 52-57%
internalized fraction ([1]; 2 h): 18-24%
cell uptake ([1]; 4 h): 60-63%
internalized fraction ([1]; 4 h): 20-26%
Tumor-to-blood ([2]; 1 h p.i.): 2.31 ± 0.58
Tumor-to-kidney ([2]; 1 h p.i.): 0.79 ± 0.02
Tumor-to-liver ([2]; 1 h p.i.): 8.65 ± 2.21
Blood ([2]; 4 h p.i.): 10.2 ± 1.98 % IA/g
Bone ([2]; 4 h p.i.): 1.67 ± 0.27 % IA/g
Heart ([2]; 4 h p.i.): 3.82 ± 0.63 % IA/g
Intestines ([2]; 4 h p.i.): 1.33 ± 0.25 % IA/g
Kidneys ([2]; 4 h p.i.): 52.8 ± 7.17 % IA/g
Liver ([2]; 4 h p.i.): 2.96 ± 0.50 % IA/g
Lung ([2]; 4 h p.i.): 7.07 ± 1.44 % IA/g
Muscle ([2]; 4 h p.i.): 1.30 ± 0.23 % IA/g
PC-3 PIP Tumor ([2]; 4 h p.i.): 75.3 ± 15.3 % IA/g
PC-3 flu Tumor ([2]; 4 h p.i.): 2.10 ± 0.20 % IA/g
Salivary glands ([2]; 4 h p.i.): 2.75 ± 0.72 % IA/g
Spleen ([2]; 4 h p.i.): 3.29 ± 0.74 % IA/g
Stomach ([2]; 4 h p.i.): 1.15 ± 0.17 % IA/g
Tumor-to-blood ([2]; 4 h p.i.): 7.43 ± 1.43
Tumor-to-kidney ([2]; 4 h p.i.): 1.42 ± 0.19
Tumor-to-liver ([2]; 4 h p.i.): 25.6 ± 4.58
Blood ([2]; 24 h p.i.): 1.67 ± 0.29 % IA/g
Bone ([2]; 24 h p.i.): 0.31 ± 0.08 % IA/g
Heart ([2]; 24 h p.i.): 0.65 ± 0.11 % IA/g
Intestines ([2]; 24 h p.i.): 0.28 ± 0.05 % IA/g
Kidneys ([2]; 24 h p.i.): 23.9 ± 4.02 % IA/g
Liver ([2]; 24 h p.i.): 0.82 ± 0.35 % IA/g
Lung ([2]; 24 h p.i.): 1.80 ± 0.78 % IA/g
Muscle ([2]; 24 h p.i.): 0.19 ± 0.06 % IA/g
PC-3 PIP Tumor ([2]; 24 h p.i.): 79.4 ± 11.1 % IA/g
PC-3 flu Tumor ([2]; 24 h p.i.): 0.59 ± 0.10 % IA/g
Salivary glands ([2]; 24 h p.i.): 0.49 ± 0.10 % IA/g
Spleen ([2]; 24 h p.i.): 1.13 ± 0.23 % IA/g
Stomach ([2]; 24 h p.i.): 0.28 ± 0.06 % IA/g
Tumor-to-blood ([2]; 24 h p.i.): 48.2 ± 7.04 and 48 ± 6.4
Tumor-to-kidney ([2]; 24 h p.i.): 3.38 ± 0.58 and 3.4 ± 0.5
Tumor-to-liver ([2]; 24 h p.i.): 106 ± 28.6 and 106 ± 26
Blood ([2]; 48 h p.i.): 1.66 ± 0.37 % IA/g
Bone ([2]; 48 h p.i.): 0.28 ± 0.05 % IA/g
Heart ([2]; 48 h p.i.): 0.54 ± 0.15 % IA/g
Intestines ([2]; 48 h p.i.): 0.28 ± 0.10 % IA/g
Kidneys ([2]; 48 h p.i.): 12.8 ± 2.62 % IA/g
Liver ([2]; 48 h p.i.): 0.56 ± 0.16 % IA/g
Lung ([2]; 48 h p.i.): 1.48 ± 0.62 % IA/g
Muscle ([2]; 48 h p.i.): 0.20 ± 0.08 % IA/g
PC-3 PIP Tumor ([2]; 48 h p.i.): 60.3 ± 10.7 % IA/g
PC-3 flu Tumor ([2]; 48 h p.i.): 0.57 ± 0.09 % IA/g
Salivary glands ([2]; 48 h p.i.): 0.45 ± 0.10 % IA/g
Spleen ([2]; 48 h p.i.): 0.71 ± 0.23 % IA/g
Stomach ([2]; 48 h p.i.): 0.29 ± 0.08 % IA/g
Tumor-to-blood ([2]; 48 h p.i.): 36.7 ± 1.81 and 38 ± 2.5
Tumor-to-kidney ([2]; 48 h p.i.): 4.72 ± 0.18 and 5.0 ± 0.7
Tumor-to-liver ([2]; 48 h p.i.): 110 ± 12.2 and 100 ± 32
Blood ([2]; 96 h p.i.): 1.79 ± 0.57 % IA/g
Bone ([2]; 96 h p.i.): 0.28 ± 0.04 % IA/g
Heart ([2]; 96 h p.i.): 0.70 ± 0.21 % IA/g
Intestines ([2]; 96 h p.i.): 0.30 ± 0.11 % IA/g
Kidneys ([2]; 96 h p.i.): 6.89 ± 0.31 % IA/g
Liver ([2]; 96 h p.i.): 0.74 ± 0.14 % IA/g
Lung ([2]; 96 h p.i.): 1.36 ± 0.29 % IA/g
Muscle ([2]; 96 h p.i.): 0.15 ± 0.06 % IA/g
PC-3 PIP Tumor ([2]; 96 h p.i.): 45.0 ± 7.94 % IA/g
PC-3 flu Tumor ([2]; 96 h p.i.): 0.49 ± 0.11 % IA/g
Salivary glands ([2]; 96 h p.i.): 0.46 ± 0.10 % IA/g
Spleen ([2]; 96 h p.i.): 0.64 ± 0.29 % IA/g
Stomach ([2]; 96 h p.i.): 0.24 ± 0.07 % IA/g
Tumor-to-blood ([2]; 96 h p.i.): 27.1 ± 10.0
Tumor-to-kidney ([2]; 96 h p.i.): 6.51 ± 0.98
Tumor-to-liver ([2]; 96 h p.i.): 62.8 ± 18.8
Blood ([2]; 144 h p.i.): 1.75 ± 0.35 % IA/g
Bone ([2]; 144 h p.i.): 0.25 ± 0.05 % IA/g
Heart ([2]; 144 h p.i.): 0.65 ± 0.17 % IA/g
Intestines ([2]; 144 h p.i.): 0.27 ± 0.05 % IA/g
Kidneys ([2]; 144 h p.i.): 4.28 ± 0.26 % IA/g
Liver ([2]; 144 h p.i.): 0.72 ± 0.13 % IA/g
Lung ([2]; 144 h p.i.): 1.25 ± 0.18 % IA/g
Muscle ([2]; 144 h p.i.): 0.17 ± 0.04 % IA/g
PC-3 PIP Tumor ([2]; 144 h p.i.): 33.9 ± 0.80 % IA/g
PC-3 flu Tumor ([2]; 144 h p.i.): 0.52 ± 0.13 % IA/g
Salivary glands ([2]; 144 h p.i.): 0.46 ± 0.09 % IA/g
Spleen ([2]; 144 h p.i.): 0.56 ± 0.08 % IA/g
Stomach ([2]; 144 h p.i.): 0.23 ± 0.04 % IA/g
Tumor-to-blood ([2]; 144 h p.i.): 19.9 ± 3.88
Tumor-to-kidney ([2]; 144 h p.i.): 7.93 ± 0.30
Tumor-to-liver ([2]; 144 h p.i.): 47.9 ± 8.28
Blood ([2]; 192 h p.i.): 1.48 ± 0.13 % IA/g
Bone ([2]; 192 h p.i.): 0.26 ± 0.04 % IA/g
Heart ([2]; 192 h p.i.): 0.59 ± 0.05 % IA/g
Intestines ([2]; 192 h p.i.): 0.24 ± 0.04 % IA/g
Kidneys ([2]; 192 h p.i.): 2.70 ± 0.36 % IA/g
Liver ([2]; 192 h p.i.): 0.84 ± 0.06 % IA/g
Lung ([2]; 192 h p.i.): 1.22 ± 0.26 % IA/g
Muscle ([2]; 192 h p.i.): 0.14 ± 0.01 % IA/g
PC-3 PIP Tumor ([2]; 192 h p.i.): 27.9 ± 3.24 % IA/g
PC-3 flu Tumor ([2]; 192 h p.i.): 0.45 ± 0.06 % IA/g
Salivary glands ([2]; 192 h p.i.): 0.37 ± 0.04 % IA/g
Spleen ([2]; 192 h p.i.): 0.55 ± 0.10 % IA/g
Stomach ([2]; 192 h p.i.): 0.16 ± 0.04 % IA/g
Tumor-to-blood ([2]; 192 h p.i.): 19.0 ± 2.97
Tumor-to-kidney ([2]; 192 h p.i.): 10.4 ± 0.25
Tumor-to-liver ([2]; 192 h p.i.): 33.4 ± 1.64
AUC PC-3 PIP tumor [2, 3]: 6741 ± 421 % IA/g · h
AUC blood [2, 3]: 387 ± 32 % IA/g · h
AUC kidneys [2, 3]: 1837 ± 112 % IA/g · h
AUC liver [2, 3]: 131 ± 11 % IA/g · h
Ratio of AUCs AUCTu-to-AUCBl ([2]; tumor to blood): 17
Ratio of AUCs AUC-Tu-to-AUC-Ki ([2]; tumor to kidneys): 3.7
Ratio of AUCs AUCTu-to-AUCLi ([2]; tumor to liver): 52
plasma protein-bound fraction (mouse plasma proteins): 77±2.1%
plasma protein-bound fraction (human plasma proteins): 95±0.6%

Source: patent US11629201B2, “PSMA-binding agents and uses thereof” (ITM Isotope Technologies Munich SE, priority 2017, dated 2023)
